Experimental data reported in patent US12071430B2 (The Johns Hopkins University, priority 2011, dated 2024).
Converted amounts (≈) assume the structure as drawn. Blank lines part the entries; values can stand above or below the compound they belong to.

Experiments:
CYP3A4 = target: T1, CYP3A4 (Homo sapiens, UniProt P08684); assay: CYP3A4 enzyme assay (Vivid CYP3A4 Green Screening Kit); format: in vitro ADME
T1 construct: purchased ThermoFisher P2857; host or cells: baculosomes (insect-cell microsomes, own knowledge)
Procedure, shortened: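 Cell-free fluorescence assay with CYP3A4 baculosomes preincubated with drug 10 min at 37° C before Vivid substrate addition. Fluorescence (ex/em 485/520) read every 1 min for 60 minutes. Compounds tested at 1 μM final concentration.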

HUVECs = assay: Filipin staining of intracellular cholesterol (NPC phenotype); format: cell-based, human; details: HUVEC, 0.2 μM, 24 h
Text: Nieman-Pick C phenotype and mTOR inhibition. […] We thus determined whether compound 48 shared the same mechanism with itraconazole. The intracellular cholesterol was detected using the cholesterol-binding fluorescent dye filipin. […] It is known that AMPK activation leads to mTOR inhibition.
Inhibition of NPC1. NPC1 plays an essential role in cholesterol export from the endolysosome. […] At a close view (FIG. 9B), the linear pyridinyl-piperizin-1-yl-phenyl core of compound 14 nestled into the hydrophobic channel created by the transmembrane helix. The isobutyl tail faced toward the open entrance of this channel. The tetrazole moiety pointed into the closed end of the pocket and interacted with the hydroxyl group of Tyr1225 via hydrogen bonding.
Filipin staining. 2000 HUVECs were plated in chamber slide with 1 ml media and allowed to settle overnight. […] The the cells were fixed with 4% paraformaldehyde for 15 min. After washed, cells were incubated with 500 ul 50 ug/ml filipin solution for 1 hour in the dark. Then the cells were washed twice with PBS, mounted and covered with coverslip. The images were taken using confocal microscope under 360/460 nm.

[1] = Earlier SAR studies, anti-angiogenic activity
[2] = Aqueous solubility test in 0.001N HCl; format: physicochemical; details: 0.001 N HCl aqueous buffer, simulated gastric fluid, kinetic from dmso stock; thermodynamic solubility, HPLC, pH=3, room temperature, 24 h
Description: The inhibitory effects of the new analogs on HUVEC proliferation were measured using a [3H]-thymidine incorporation assay. The log P values, used as an indicator of lipophilicity, were calculated using ALOGPS2.1 software. Aqueous solubility is a key physiochemical property relevant for oral absorption. We determined the solubility of each analog in 0.001 N HCl (pH=3), which represents the acidic human gastric fluid.
Aqueous solubility test. In a 1.5 mL microcentrifuge tube, 2 ul of 10 mM compound stock solution in DMSO was added to 1 mL 0.001N HCl aqueous buffer to obtain saturated solution. The resulting mixture was shaken under 600 rpm for 24 h at room temperature. Then the tube was centrifuged at 13,000 rpm for 5 min to remove the undissolved compound. 100 ul of the supernatant was injected to an Agilent 6120 LC/MS for analysis. The mass spectrometry data was collected under SIM/Scan mode. The ions of compound Exact Mass+1 and Exact Mass+23 were monitored as selected ion monitoring (SIM) for peak area integration. Solubility was calculated according to the concentration standard curve of each compound.

HUVEC = HUVEC proliferation, [3H]-thymidine incorporation assay; format: cell-based, human; details: HUVEC IC50 relative to itraconazole
Procedure, shortened: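 Proliferation read as [3H]-thymidine uptake (1 μCi, 6 h pulse) after 24 h drug treatment in triplicate. Cells: HUVEC at passage ≤8 grown in EGM-2, plated 2000/well the night before; IC50 fitted from scintillation counts.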

mTOR = assay: Western blot, mTOR inhibition in HUVEC; format: cell-based, human; details: 24 h
Description: (§1) Western blot. […] Then cells were lysed using RIPA buffer and the protein concentration were measured and normalized. After electrophoresis and transfer onto 0.45 um nitrocellulose membranes, the membranes were bolted with 5% BSA for 1 h and then incubated overnight at 4° C. Secondary antibody was applied to each membrane for 1 hour. Bolts were imaged using Syngene PXi imaging system after adding chemiluminescent substrate. The following antibodies were used for the assay: AMPKα (1:1,000, cell signaling, #2532s), phosphor-AMPKα (1:1,000, cell signaling #2535s), ACC (1:1,000, cell signaling #3662s), phosphor-ACC (1:1,000, cell signaling, #3661s), mTOR (1:1,000, cell signaling, #2972S), phosphor-mTOR (1:1,000, cell signaling, #9234s), p70 S6 Kinase (1:1,000, senta cruz, #sc-8418), phosphor-p70 S6 Kinase (1:1,000, cell signaling, #3662s), anti-Rabbit IgG (1:10000, GE lifesciences, #NA934V).

AMPK = assay: Western blot, AMPK activation in HUVEC; format: cell-based, human; details: 24 h, dose-dependent
Description: as §1

[3] = Earlier SAR studies, hepatotoxicity
[4] = background statement; cited from earlier work

T1 sequence (P08684 whole entry): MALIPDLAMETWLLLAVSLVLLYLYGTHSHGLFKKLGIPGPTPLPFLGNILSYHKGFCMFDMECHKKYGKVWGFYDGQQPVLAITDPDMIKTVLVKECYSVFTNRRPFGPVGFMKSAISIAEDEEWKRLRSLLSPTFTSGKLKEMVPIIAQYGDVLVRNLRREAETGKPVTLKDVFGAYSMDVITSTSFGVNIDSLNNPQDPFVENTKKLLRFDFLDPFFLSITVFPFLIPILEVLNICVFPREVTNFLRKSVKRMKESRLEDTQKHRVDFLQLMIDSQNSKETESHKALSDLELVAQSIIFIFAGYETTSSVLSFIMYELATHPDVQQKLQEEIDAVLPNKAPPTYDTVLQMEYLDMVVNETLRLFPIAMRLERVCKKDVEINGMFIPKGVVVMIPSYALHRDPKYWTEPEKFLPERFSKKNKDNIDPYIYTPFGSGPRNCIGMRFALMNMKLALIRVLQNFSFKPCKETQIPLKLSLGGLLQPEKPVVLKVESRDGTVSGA

CYP3A4 inhibition, in words (CYP3A4; dose response or compared with itraconazole): significantly reduced CYP3A4 inhibition
solubility at 24 h [2]: 0.321 µg/mL (≈ 0.455 µM)
Compound: CCC(C)n1ncn(-c2ccc(N3CCN(c4ccc(OC[C@@H]5CO[C@@](Cn6cnnn6)(c6ccc(Cl)cc6Cl)O5)cc4)CC3)cc2)c1=O (stereo partly drawn) [Compound 24]
induction of NPC phenotype (cholesterol accumulation) (HUVECs; listed as compound 24): massive build-up of cholesterol
anti-angiogenic activity, in words [1]: increased activity

CYP3A4 Inhibition (compared to intracozanole at 1 um) (CYP3A4; % enzyme inhibition at 1 uM drug / % enzyme inhibition at 1 uM itraconazole): 0.02
IC50 at 60 min (CYP3A4; human, recombinant CYP3A4 baculosomes (cell-free), probe Vivid substrate (Vivid CYP3A4 Green Screening Kit), dose-response, FIG. 2 / FIG. 6, read-out: IC50 for CYP3A4 inhibition): > 20 µM
EC50 at 60 min (CYP3A4; human, recombinant CYP3A4 baculosomes, probe Vivid substrate (Vivid CYP3A4 Green Screening Kit), read-out: EC50 against CYP3A4): > 20 µM
Compound: CCC(C)n1ncn(-c2ccc(N3CCN(c4ccc(OC[C@@H]5CO[C@@](Cn6cnnn6)(c6ccc(Cl)cc6Cl)O5)cc4)CC3)cc2)c1=O (stereo partly drawn) [Compound 48, 4-(4-(4-(4-(((2S,4R)-2-((1H-tetrazol-1-yl)methyl)-2-(2,4-dichlorophenyl)-1,3-dioxolan-4-yl)methoxy)phenyl)piperazin-1-yl)phenyl)-1-sec-butyl-1H-1,2,4-triazol-5(4H)-one]
Proliferation (IC50/IC50 Itra) (HUVEC): 0.4
mTOR inhibition (phosphorylation of mTOR / p70 S6K) (mTOR): decrease in the phosphorylation of mTOR
AMPK activation (phosphorylation of AMPK Thr172 / substrate ACC) (AMPK): increased the phosphorylation of AMPK
induction of NPC phenotype (cholesterol accumulation) (HUVECs; listed as compound 48): induced NPC phenotype

Compound: CCC(C)n1ncn(-c2ccc(N3CCN(c4ccc(OC[C@@H]5CO[C@@](Cn6cncn6)(c6ccc(Cl)cc6Cl)O5)cc4)CC3)cc2)c1=O (stereo partly drawn) [IT-C]
anti-angiogenic activity, in words [1]: strongest anti-angiogenic activity
hepatotoxicity, in words [3]: significantly reduced hepatotoxicity

solubility at 24 h [2]: 0.0101 µg/mL (≈ 0.0143 µM)
Compound: CCC(C)n1ncn(-c2ccc(N3CCN(c4ccc(OCC5COC(Cn6cncn6)(c6ccc(Cl)cc6Cl)O5)cc4)CC3)cc2)c1=O (stereo not drawn) [itraconazole, reference compound]
log P [4]: 5.3
